Data reported in patent publication US5952308A, “Mineral absorption promoting agent” (Pola Chemical Industries Inc., priority 1991, dated 1999).

Columns and labels:
hemoglobin = experiment: Mineral absorption promoting effect test on animals (hemoglobin increase, iron utilization); type: in vivo, Wistar male rats
Description: Wistar male rats (body weight:80 g) were feeded for 3 weeks, giving iron-free feed, ferrous sulfate-added feed (iron: 12 ppm), or ferrous sulfate and oligogalacturonic acid-added feed (iron: 12 ppm, powder oligogalacturonic acid obtained in the preparation method 1=0.5%).
During the period, hemoglobin concentration in blood was measured every 7 days, and utilization ratios of iron in each of these feeds were compared, using hemoglobin increase (hemoglobin concentration in blood×blood volume) as an index.
Net increase of hemoglobin (number of tested rats = 10); unit: […]

Wistar rat = experiment: Acute toxicity test of oligogalacturonic acid; conditions: in vivo, po
Description: Acute toxicity test of oligogalacturonic acid
Animal: Wistar rat: One group comprising
10 each of male and female rats
Specimen: 50% oligogalacturonic acid aqueous
Oral forced administration
Dosage: Group 1 10 ml/kg

ferrous sulfate
Net increase of hemoglobin, 7th day (hemoglobin; 7th day, feed with iron 12 ppm, n = 10 rats, ± SD): 0.2 ± 0.1 g | Net increase of hemoglobin, 14th day (hemoglobin; 14th day, feed with iron 12 ppm, n = 10 rats, ± SD): 0.3 ± 0.1 g | Net increase of hemoglobin, 21st day (hemoglobin; 21st day, feed with iron 12 ppm, n = 10 rats, ± SD): 0.4 ± 0.2 g | Net increase of hemoglobin, at start (hemoglobin; at start, feed with iron 12 ppm, n = 10 rats, ± SD): 0 g | Utilization ratio (hemoglobin; iron in feed, 3 weeks, index hemoglobin increase (hemoglobin concentration in blood×blood volume)): 33%

oligogalacturonic acid
autopsy after 14 days (Wistar rat): no abnormal sign
